{"source": "patent US20250154147A1", "about": "“NOVEL AMINE-SUBSTITUTED PHTHALAZINES AND DERIVATIVES AS SOS1 INHIBITORS” (Jazz Pharmaceuticals Ireland Limited, priority 2022, published 2025)", "data": [{"target": "SOS1 binding to KRAS-WT (Homo sapiens (Human), UniProt Q07889)", "sequence (Q07889 564-1049)": "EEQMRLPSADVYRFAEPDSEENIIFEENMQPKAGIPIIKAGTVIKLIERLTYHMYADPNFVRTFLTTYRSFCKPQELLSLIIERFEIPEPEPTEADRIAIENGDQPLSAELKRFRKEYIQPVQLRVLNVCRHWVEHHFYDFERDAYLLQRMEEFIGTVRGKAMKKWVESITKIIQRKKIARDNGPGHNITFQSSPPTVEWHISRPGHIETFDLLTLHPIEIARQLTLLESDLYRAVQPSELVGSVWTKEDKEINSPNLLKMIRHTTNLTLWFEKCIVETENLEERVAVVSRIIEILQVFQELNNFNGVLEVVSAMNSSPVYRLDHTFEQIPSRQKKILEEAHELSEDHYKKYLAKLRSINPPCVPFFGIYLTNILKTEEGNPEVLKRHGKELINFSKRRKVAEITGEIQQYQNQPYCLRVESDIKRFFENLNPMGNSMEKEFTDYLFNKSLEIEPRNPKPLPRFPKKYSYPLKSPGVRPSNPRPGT", "assay": "SOS1/KRAS WT HTRF binding assay (FRET-based protein-protein interaction assay)", "details": "40 nM GST-KRAS-WT, 40 nM His6-SOS1 exchange domain; at least two independent replicates", "description": "The capacity of compounds to inhibit SOS1 binding to KRAS-WT (wild-type) was quantified using a FRET-based protein-protein interaction assay. The assay is based on the transfer of energy between two fluorophores, a donor and an acceptor, when in close proximity. In this instance, the donor is a Europium-conjugated α-GST antibody that binds to GST-tagged KRAS-WT, and the acceptor is an XL665-conJugated α-His6 antibody that binds to His6-tagged SOS1. Binding of SOS1 to KRAS-WT results in an increased fluorescent signal at emission wavelength of 665 nm which can be detected on the EnVision plate reader. Compounds that inhibit binding will reduce the 665 nm signal emitted. Recombinant KRAS-WT protein (40 nM; Human KRAS, aal-188 recombinant protein with N-terminal GST-tag) and SOS1 protein (40 nM; Human SOS1 exchange domain, aa564-1049 with N-terminal 6His-tag) were mixed together in assay buffer (5 mM HEPES pH7.3, 150 mM NaCl, 10 mM EDTA, 5 mM MgCl2, 0.05% BSA, 0.0025% NP-40, 1 mM DTT and 100 mM KF) and incubated at room temperature with a dose response of compound in a 384-well low volume white plate and a final volume of 5 ul. After a 60 minute incubation, 5 ul of 4 nM anti-GST-Eu(K) (Cisbio, France) combined with 20 nM anti-6His-XL665 (Cisbio, France), diluted in assay buffer, was added to the plate. Following a further 4 h incubation at room temperature, time-resolved fluorescence was measured on the EnVision plate reader. DMSO (0.05%) and 10 μM reference compound were used to generate the Max and Min assay signals, respectively. Data was analyzed using a four-parameter logistic model to calculate IC50 values, with at least two independent replicates performed for each compound.", "values": [{"compound": "Cc1nnc(N[C@H](C)c2cccc(C(F)(F)F)c2)c2cn(CC3COC3)c(=O)cc12", "note": "[Compound 5, 1-methyl-6-(oxetan-3-ylmethyl)-4-[[(1R)-1-[3-(trifluoromethyl)phenyl]ethyl]amino] pyrido[3,4-d]pyridazin-7-one]", "SOS1/KRAS WT HTRF Binding assay pIC50": 6.52}, {"compound": "Cc1nnc(NC(C)c2cccc(C(F)(F)F)c2)c2cc(O[C@H]3CCOC3)cnc12", "note": "(stereo partly drawn) [Compound 9, 8-methyl-3-[(3S)-tetrahydrofuran-3-yl]oxy-N-[1-[3-(trifluoromethyl)phenyl]ethyl]pyrido[2,3-d]pyridazin-5-amine]", "SOS1/KRAS WT HTRF Binding assay pIC50": 6.60}, {"compound": "Cc1nnc(N[C@H](C)c2cccc(C(F)(F)F)c2)c2cn(C3CC3)c(=O)cc12", "note": "[Compound 13, 6-cyclopropyl-1-methyl-4-[[(1R)-1-[3-(trifluoromethyl)phenyl]ethyl]amino] pyrido[3,4-d]pyridazin-7-one]", "SOS1/KRAS WT HTRF Binding assay pIC50": 7.20}, {"compound": "Cc1nnc(N[C@H](C)c2cccc(C(F)(F)F)c2)c2cc(O[C@H]3CCOC3)cnc12", "note": "[Compound 10, 8-methyl-3-[(3S)-tetrahydrofuran-3-yl]oxy-N-[(1R)-1-[3-(trifluoromethyl)phenyl]ethyl]pyrido[2,3-d]pyridazin-5-amine]", "SOS1/KRAS WT HTRF Binding assay pIC50": 6.76}, {"compound": "Cc1nnc(NC(C)c2cccc(C(F)(F)F)c2)c2nc(O[C@H]3CCOC3)ccc12", "note": "(stereo partly drawn) [Compound 15, 5-methyl-2-[(3S)-tetrahydrofuran-3-yl]oxy-N-[1-[3-(trifluoromethyl)phenyl]ethyl]pyrido[2,3-d]pyridazin-8-amine]", "SOS1/KRAS WT HTRF Binding assay pIC50": 6.17}, {"compound": "CCn1cc2c(N[C@H](C)c3cccc(C(F)(F)F)c3)nnc(C)c2cc1=O", "note": "[Compound 3, 6-ethyl-1-methyl-4-[[(1R)-1-[3-(trifluoromethyl)phenyl]ethyl]amino] pyrido[3,4-d]pyridazin-7-one]", "SOS1/KRAS WT HTRF Binding assay pIC50": 6.46}, {"compound": "Cc1nnc(NC(C)c2cccc(C(F)(F)F)c2)c2cn(C3CCCC3)c(=O)cc12", "note": "(stereo not shown) [Compound 1, 6-cyclopentyl-1-methyl-4-[1-[3-(trifluoromethyl)phenyl]ethylamino] pyrido[3,4-d]pyridazin-7-one]", "SOS1/KRAS WT HTRF Binding assay pIC50": 6.72}, {"compound": "Cc1nnc(N[C@H](C)c2cccc(C(F)(F)F)c2F)c2cc(C3CCNCC3)c(=O)n(C)c12", "note": "[Compound 23, 5-[[(1R)-1-[2-fluoro-3-(trifluoromethyl)phenyl]ethyl]amino]-1,8-dimethyl-3-(4-piperidyl)pyrido[2,3-d]pyridazin-2-one]", "SOS1/KRAS WT HTRF Binding assay pIC50": 7.24}, {"compound": "Cc1nnc(N[C@H](C)c2cccc(C(F)(F)F)c2)c2cn(C3CCCC3)c(=O)cc12", "note": "[Compound 2, 6-cyclopentyl-1-methyl-4-[[(1R)-1-[3-(trifluoromethyl)phenyl]ethyl]amino] pyrido[3,4-d]pyridazin-7-one]", "SOS1/KRAS WT HTRF Binding assay pIC50": 7.11}, {"compound": "Cc1nnc(N[C@H](C)c2cccc(C(F)(F)F)c2)c2cn(C(C)C)c(=O)cc12", "note": "[Compound 7, 6-isopropyl-1-methyl-4-[[(1R)-1-[3-(trifluoromethyl)phenyl]ethyl]amino] pyrido[3,4-d]pyridazin-7-one]", "SOS1/KRAS WT HTRF Binding assay pIC50": 7.02}, {"compound": "Cc1nnc(N[C@H](C)c2cccc(C(F)(F)F)c2)c2cn(CC3CC3)c(=O)cc12", "note": "[Compound 4, 6-(cyclopropylmethyl)-1-methyl-4-[[(1R)-1-[3-(trifluoromethyl)phenyl]ethyl]amino] pyrido[3,4-d]pyridazin-7-one]", "SOS1/KRAS WT HTRF Binding assay pIC50": 6.52}, {"compound": "CC(=O)N1CCCC(c2cc3c(N[C@H](C)c4cccc(C(F)(F)F)c4)nnc(C)c3n(C)c2=O)C1", "note": "(stereo partly drawn) [Compound 18, 3-(1-acetyl-3-piperidyl)-1,8-dimethyl-5-[[(1R)-1-[3-(trifluoromethyl)phenyl]ethyl]amino] pyrido[2,3-d]pyridazin-2-one]", "SOS1/KRAS WT HTRF Binding assay pIC50": 7.36}, {"compound": "Cc1nnc(N[C@H](C)c2cccc(C(F)(F)F)c2)c2cc(C3=CCCNC3)c(=O)n(C)c12", "note": "[Compound 16, 1,8-dimethyl-3-(1,2,3,6-tetrahydropyridin-5-yl)-5-[[(1R)-1-[3-(trifluoromethyl)phenyl]ethyl]amino] pyrido[2,3-d]pyridazin-2-one]", "SOS1/KRAS WT HTRF Binding assay pIC50": 7.30}, {"compound": "Cc1nnc(N[C@H](C)c2cccc(C(F)(F)F)c2)c2cn(CC3(C)COC3)c(=O)cc12", "note": "[Compound 6, 1-methyl-6-[(3-methyloxetan-3-yl)methyl]-4-[[(1R)-1-[3-(trifluoromethyl)phenyl]ethyl]amino] pyrido[3,4-d]pyridazin-7-one]", "SOS1/KRAS WT HTRF Binding assay pIC50": 6.34}, {"compound": "Cc1nnc(N[C@H](C)c2cccc(C(F)(F)F)c2)c2cc(C3=CCCC3)c(=O)n(C)c12", "note": "[Compound 12, 3-(cyclopenten-1-yl)-1,8-dimethyl-5-[[(1R)-1-[3-(trifluoromethyl)phenyl]ethyl]amino] pyrido[2,3-d]pyridazin-2-one]", "SOS1/KRAS WT HTRF Binding assay pIC50": 6.96}]}, {"target": "SOS1 binding to KRAS-WT (Homo sapiens (Human), UniProt Q07889)", "assay": "SOS1/KRAS WT HTRF binding assay (FRET-based protein-protein interaction assay)", "details": "40 nM GST-KRAS-WT, 40 nM His6-SOS1 exchange domain; at least two independent replicates; read-out: SOS1/KRAS WT HTRF Binding assay pIC50 (converted)", "units": {"IC50": "nM"}, "values": [{"compound": "Cc1nnc(N[C@H](C)c2cccc(C(F)F)c2)c2cc(C3CCN(C)CC3)c(=O)n(C)c12", "note": "(racemic) [Compound 21, 1,8-dimethyl-3-(1-methyl-4-piperidyl)-5-[[rac-(1R)-1-[3-(difluoromethyl)phenyl]ethyl]amino] pyrido[2,3-d]pyridazin-2-one]", "IC50": 53.7}, {"compound": "Cc1nnc(N[C@H](C)c2cccc(C(F)F)c2)c2cc(C3CCOCC3)c(=O)n(C)c12", "note": "(racemic) [Compound 20, 1,8-dimethyl-5-[[rac-(1R)-1-[3-(difluoromethyl)phenyl]ethyl]amino]-3-tetrahydropyran-4-yl-pyrido[2,3-d]pyridazin-2-one]", "IC50": 93.3}, {"compound": "CC(=O)N1CC=C(c2cc3c(N[C@H](C)c4cccc(C(F)(F)F)c4)nnc(C)c3n(C)c2=O)CC1", "note": "(racemic) [Compound 19, 3-(1-acetyl-3,6-dihydro-2H-pyridin-4-yl)-1,8-dimethyl-5-[[rac-(1R)-1-[3-(trifluoromethyl)phenyl]ethyl]amino] pyrido[2,3-d]pyridazin-2-one]", "IC50": 36.3}, {"compound": "CC(=O)N1CCC(c2cc3c(N[C@H](C)c4cccc(C(F)F)c4)nnc(C)c3n(C)c2=O)CC1", "note": "[Compound 22, 3-(1-acetyl-4-piperidyl)-5-[[(1R)-1-[3-(difluoromethyl)phenyl]ethyl]amino]-1,8-dimethyl-pyrido[2,3-d]pyridazin-2-one]", "IC50": 35.5}, {"compound": "Cc1nnc(N[C@H](C)c2cccc(C(F)(F)F)c2)c2cn(C3(C)CC3)c(=O)cc12", "note": "(racemic) [Compound 14, 1-methyl-6-(1-methylcyclopropyl)-4-[[rac-(1R)-1-[3-(trifluoromethyl)phenyl]ethyl]amino] pyrido[3,4-d]pyridazin-7-one]", "IC50": 58.9}, {"compound": "Cc1nnc(N[C@H](C)c2cccc(C(F)F)c2)c2cc(C3=CCCC3)c(=O)n(C)c12", "note": "[Compound 11, 3-(cyclopenten-1-yl)-5-[[(1R)-1-[3-(difluoromethyl)phenyl]ethyl]amino]-1,8-dimethyl-pyrido[2,3-d]pyridazin-2-one]", "IC50": 178}, {"compound": "Cc1nnc(N[C@H](C)c2cccc(C(F)(F)F)c2)c2cn(C3CCOC3)c(=O)cc12", "note": "(mixture of isomers) [Compound 8, 1-methyl-4-[[rac-(1R)-1-[3-(trifluoromethyl)phenyl]ethyl]amino]-6-tetrahydrofuran-3-yl-pyrido[3,4-d]pyridazin-7-one]", "IC50": 234}]}]}
